The assay concerns patient with a severe form of schizophrenia. The assay can be described thus: Case study: treatment of a patient with a severe form of schizophrenia with a GnRH-analogue. Type of assay: in vivo, human. As for the experimental part: 3. […] The patient had previously been treated with various dopamine receptor antagonists without any major improvement.
The GnRH-analogue triptorelin is available in a pharmaceutical preparation (Decapeptyl® Depot). In the use of this preparation, an injection is administered containing triptorelin embonate in a dose corresponding to 3.75 mg triptorelin. Injections with this dose are given intramuscularly. They should be repeated every fourth week from the first injection.
A detailed case study of the treatment of a patient with a severe form of schizophrenia is disclosed in the following, as supporting evidence of the effect of the method.
They had previously by other psychiatrists been given traditional treatment, for several years, without any major improvement in the symptoms of schizophrenia.
The situation when the patient came to the clinic was that they had sickness pension since more than twenty years. Their contacts with other persons were highly restraint. […] The clinical diagnosis was that they suffered from a very serious form of schizophrenia. They had no signs of any other mental illness or personality disorder. Thus, it was a clearly defined case of schizophrenia.
Certain symptoms of androgenic hyperactivity such as a male pattern baldness and frequent sexual delusions were also found at the initial examination.
An endocrinological investigation was performed, based upon their symptoms of androgenic hyperactivity. This disclosed a low blood concentration of free testosterone. Since the patient had symptoms of androgenic hyperactivity this laboratory finding could, however, not be a symptom of a low androgenic activity. Instead, the interpretation of this laboratory finding was that it was a sign of a compensatory reduction in the synthesis and release of testosterone occurring as a consequence of an increased androgenic activity in the brain.
During long periods of time the patient had been treated with the drugs which presently are considered to have the best effect against schizophrenia.
In order to overcome the sexual delusions, treatment with the long-acting GnRH-analogue triptorelin (Decapeptyl® Depot) was given every fourth week as deep intramuscular depot injections with a dose corresponding to 1.75 mg triptorelin in each injection. Initially, they were also treated with flutamid in order to prevent a transient increase in androgenic activity.
It is obvious that the dramatic improvement of the patient was caused by the treatment with a GnRH-analogue.

Where [1] appears, read: same patient and regimen, after another three months (five months in total).

This is an account of results in patent US6468973B1, “Method in the treatment of schizophrenia” (priority 1998, dated 2002).

Turning to `CC(C)C[C@H](NC(=O)[C@@H](Cc1c[nH]c2ccccc12)NC(=O)[C@H](Cc1ccc(O)cc1)NC(=O)[C@H](CO)NC(=O)[C@H](Cc1c[nH]c2ccccc12)NC(=O)[C@H](Cc1c[nH]cn1)NC(=O)[C@@H]1CCC(=O)N1)C(=O)N[C@@H](CCCNC(=N)N)C(=O)N1CCC[C@H]1C(=O)NCC(N)=O` [triptorelin], the “clinical improvement of schizophrenia” value (one patient, very severe schizophrenia, after six months of treatment, previously dopamine receptor antagonists without major improvement) is given as “dramatically improved”. For the same compound, for the setting “person, Decapeptyl Depot i.m. every fourth week, dose corresponding to 1.75 mg triptorelin, initially with flutamid, after two months treatment”, the “patient's condition (schizophrenia symptoms)” value is “began to feel better”. Under setting [1], the delusions result is recorded as “markedly reduced”, the hallucinations entry is given as “all hallucinations had disappeared” and the “patient's condition (schizophrenia symptoms)” value is “dramatically better”.
